Assay results as given in EP0547231B1, “PHOSPHOLIPASE A2 INHIBITOR” (SHIONOGI & CO., LTD., priority 1991, dated 1993).
Structures can show the parent of a compound that is named as a salt.

What follows are compounds tested against T1, PLA2 (phospholipase A2) (Rattus norvegicus, UniProt P14423) (assay: Phospholipase A2 inhibitory activity (release of free fatty acid from 14C-labelled phosphatidylethanolamine)). Conditions: PLA2 from rat platelets; CaCl2 (3 mM) in Tris-buffer (0.1 M, pH 7.4); 37 °C for 20 minutes.
T1 construct: from tissue; host or cells: rat platelets
T1 sequence (P14423 22-146): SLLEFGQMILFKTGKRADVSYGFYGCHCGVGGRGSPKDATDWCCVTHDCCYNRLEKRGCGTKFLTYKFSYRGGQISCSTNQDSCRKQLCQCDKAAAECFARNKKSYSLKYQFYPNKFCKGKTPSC
Assay type: biochemical
Method: The compounds of the present invention were tested for their Phospholipase A2 inhibitory activity by the following procedure.
1-Palmitoyl-2-[1-^14C]-linoleoyl L-3-Phosphatidylethanolamine (Amersham, Inc., 59 mCi/mmol) were diluted with L-α-phosphatidylethanolamine (Sigma, Co., from […]) [2,000 dpm/nmol], and the dilution was sonicated. The resultant dilution was used as a substrate. The PLA2 (phospholipase A2) which was used in the test was from rat platelets. The PLA2 and the substrate preparation were added to a solution of CaCl2 (3 mM) in Tris-buffer (0.1 M, pH 7.4), and the mixture was allowed to react at 37 °C for 20 minutes. Then, the reaction was terminated by adding 1.25 ml of Dole's reagent to the reaction mixture and stirring immediately the resultant mixture. To the mixture was added 0.5 ml of distilled water and 0.8 ml of n-heptane, and the mixture was stirred, centrifuged, and the supernatant was taken into another tube. To this supernatant were added an additional 0.8 ml of n-heptane and silica gel, and the mixture was stirred, centrifuged, and the supernatant was taken into vials. Toluene cocktail was added to the vials. The amount of free fatty acid released by PLA2 was determined using a liquid scintillation counter.
Inhibitory activity (%) was estimated by the formula: [(DPM value at the addition of the inhibitor - DPM value without PLA2) / (DPM value with only PLA2 - DPM value without PLA2)] × 100.

Row | Compound | IC50 [µM]
1 | COc1c(C)c(OCc2ccccc2)c(C)c(C)c1C(=O)O [Compound 8] | > 330
2 | COc1c(C)c(O)c(C)c(C)c1C(=O)O [Compound 9] | > 480
3 | COc1c(C)c(OC)c(C(=O)Oc2c(C)c(C)c(C(=O)Oc3c(C)c(C)c(C(=O)O)c(OC)c3C)c(OC)c2C)c(C)c1Cc1c(C)c(C(=O)Oc2c(C)c(C)c(C(=O)Oc3c(C)c(C)c(C(=O)O)c(OC)c3C)c(OC)c2C)c(OC)c(C)c1OC [Compound 44, Bis[5-[4'-(4''-carboxy-3''-methoxy-2'',5'',6''-trimethylphenoxycarbonyl)-3'-methoxy-2',5',6',-trimethylphenoxycarbonyl]-2,4-dimethoxy-3,6-dimethylphenyl] methane] | 0.13
4 | COc1c(C)c(OC)c(C(=O)O)c(C)c1Cc1c(C)c(C(=O)Oc2c(C)c(C)c(C(=O)Oc3c(C)c(C)c(C(=O)O)c(OC)c3C)c(OC)c2C)c(OC)c(C)c1OC [Compound 48] | 3
5 | COc1c(C)c(OC)c(C(=O)Oc2c(C)c(C)c(C(=O)O)c(OC)c2C)c(C)c1Cc1c(C)c(C(=O)Oc2c(C)c(C)c(C(=O)O)c(OC)c2C)c(OC)c(C)c1OC [Compound 50] | 4.6
6 | COc1c(C)c(OC(=O)c2c(C)c(C)c(OC(=O)c3cccc(C(=O)Oc4c(C)c(C)c(C(=O)Oc5c(C)c(C)c(C(=O)O)c(OC)c5C)c(OC)c4C)c3)c(C)c2OC)c(C)c(C)c1C(=O)O [Compound 52] | 0.16
7 | COc1c(C)c(OC(=O)c2c(C)c(C)c(OC(=O)c3cc(=O)cc(C(=O)Oc4c(C)c(C)c(C(=O)Oc5c(C)c(C)c(C(=O)O)c(OC)c5C)c(OC)c4C)o3)c(C)c2OC)c(C)c(C)c1C(=O)O [Compound 54] | 0.88
8 | COc1cc(OC)c(C(=O)Oc2c(C)c(C)c(C(=O)Oc3c(C)c(C)c(C(=O)O)c(OC)c3C)c(OC)c2C)cc1Oc1cc(C)c(OC)c(C(=O)Oc2c(C)c(C)c(C(=O)Oc3c(C)c(C)c(C(=O)O)c(OC)c3C)c(OC)c2C)c1 [Compound 56] | 0.035
9 | CCCCOC(=O)c1cc(Sc2ccc(OC)c(C(=O)Oc3c(C)c(C)c(C(=O)O)c(OC)c3C)c2)ccc1OC [Compound 59, n-Butyl 3-[3'-(4''-carboxy-3''-methoxy-2'',5'',6''-trimethylphenoxycarbonyl)-4'-methoxyphenyl]-thio-6-methoxybenzoate] | 1.45
10 | Cc1c(O)c(Cc2c(C)c(C(=O)Oc3c(C)c(C)c(C(=O)Oc4c(C)c(C)c(C(=O)O)c(O)c4C)c(O)c3C)c(O)c(C)c2O)c(C)c(C(=O)Oc2c(C)c(C)c(C(=O)Oc3c(C)c(C)c(C(=O)O)c(O)c3C)c(O)c2C)c1O [Compound 62, Bis[5-[4'-(4''-carboxy-3''-hydroxy-2'',5'',6''-trimethylphenoxycarbonyl)-3'-hydroxy-2',5',6'-trimethylphenoxycarbonyl]-2,4-dihydroxy-3,6-dimethylphenyl] methane] | 0.95
11 | COc1c(C)c(OC)c(C(=O)Oc2cc(C)c(C(=O)Oc3c(C)c(C)c(C(=O)Oc4c(C)c(C)c(C(=O)O)c(OC)c4C)c(OC)c3C)c(O)c2C)c(C)c1Oc1ccc(C[C@H](N)C(=O)O)cc1 [Compound 74, [5-[4'-[4''-(4'''-Carboxy-3'''-methoxy-2''',5''',6'''-trimethylphenoxycarbony)-3''-methoxy-2'',5'',6''-trimethylphenoxycarbony]-3'-hydroxy-2',5'-dimethylphenoxycarbony]-2,4-dimethoxy-3,6-dimethylphenyl] [4''''-(2'''''-amino-2'''''-carboxyethyl)phenyl] ether trifluoroacetate] | 0.07
12 | COc1c(C)c(OC)c(C(=O)Oc2c(C)c(O)cc(C)c2C(=O)Oc2c(C)c(C)c(C(=O)Oc3c(C)c(C)c(C(=O)O)c(OC)c3C)c(OC)c2C)c(C)c1Oc1ccc(C[C@H](N)C(=O)O)cc1 [Compound 77, [5-[6'-[4''-(4'''-Carboxy-3'''-methoxy-2''',5''',6'''-trimethylphenoxycarbony)-3''-methoxy-2'',5'',6''-trimethylphenoxycarbony]-3'-hydroxy-2',5'-dimethylphenoxycarbony]-2,4-dimethoxy-3,6-dimethylphenyl] [4''''-(2'''''-amino-2'''''-carboxyethyl)phenyl] ether trifluoroacetate] | 0.34
13 | COc1ccc(Sc2ccc(OC)c(C(=O)Oc3c(C)c(C)c(C(=O)Oc4c(C)c(C)c(C(=O)O)c(OC)c4C)c(OC)c3C)c2)cc1C(=O)Oc1c(C)c(C)c(C(=O)Oc2c(C)c(C)c(C(=O)O)c(OC)c2C)c(OC)c1C [Compound 104a, Bis[3-[4'-[(4''-carboxy-3''-methoxy-2'',5'',6''-trimethyl)phenoxycarbony]-3'-methoxy-2',5',6'-trimethyl]-phenoxycarbony-4-methoxyphenyl] sulfide] | 0.049
14 | COc1ccc(S(=O)(=O)c2ccc(OC)c(C(=O)Oc3c(C)c(C)c(C(=O)Oc4c(C)c(C)c(C(=O)O)c(OC)c4C)c(OC)c3C)c2)cc1C(=O)Oc1c(C)c(C)c(C(=O)Oc2c(C)c(C)c(C(=O)O)c(OC)c2C)c(OC)c1C [Compound 104b, Bis[3-[4'-[(4''-carboxy-3''-methoxy-2'',5'',6''-trimethyl)phenoxycarbony]-3'-methoxy-2',5',6'-trimethyl]-phenoxycarbony-4-methoxyphenyl] sulfone] | 0.05
15 | COc1ccc([S+]([O-])c2ccc(OC)c(C(=O)Oc3c(C)c(C)c(C(=O)Oc4c(C)c(C)c(C(=O)O)c(OC)c4C)c(OC)c3C)c2)cc1C(=O)Oc1c(C)c(C)c(C(=O)Oc2c(C)c(C)c(C(=O)O)c(OC)c2C)c(OC)c1C [Compound 104c, Bis[3-[4'-[(4''-carboxy-3''-methoxy-2'',5'',6''-trimethyl)phenoxycarbony]-3'-methoxy-2',5',6'-trimethyl]-phenoxycarbony-4-methoxyphenyl] sulfoxide] | 0.12
16 | COc1ccc(Sc2ccc(OC)c(C(=O)Oc3c(C)c(C)c(C(=O)Oc4c(C)c(C)c(C(=O)O)c(OC)c4C)c(OC)c3C)c2)cc1C(=O)O [Compound 108] | 2.1
17 | COc1ccc(Oc2ccc(OC)c(C(=O)Oc3c(C)c(C)c(C(=O)O)c(OC)c3C)c2)cc1C(=O)Oc1c(C)c(C)c(C(=O)O)c(OC)c1C [Compound 110a, Bis[3-[4'-carboxy-3'-methoxy-2',5',6'-trimethylphenoxycarbonyl)-4-methoxyphenyl] ether] | 3.4
18 | COc1ccc(Sc2ccc(OC)c(C(=O)Oc3c(C)c(C)c(C(=O)O)c(OC)c3C)c2)cc1C(=O)Oc1c(C)c(C)c(C(=O)O)c(OC)c1C [Compound 110b, Bis[3-(4'-carboxy-3'-methoxy-2',5',6'-trimethylphenoxycarbonyl)-4-methoxyphenyl] sulfide] | 2.5
19 | COc1ccc(Oc2ccc(OC)c(C(=O)Oc3c(C)c(C)c(C(=O)Oc4c(C)c(C)c(C(=O)O)c(OC)c4C)c(OC)c3C)c2)cc1C(=O)Oc1c(C)c(C)c(C(=O)Oc2c(C)c(C)c(C(=O)O)c(OC)c2C)c(OC)c1C [Compound 120] | 0.042
20 | COc1c(C)c(OC(=O)c2c(C)c(C)c(OC(=O)/C=C/C(=O)Oc3c(C)c(C)c(C(=O)Oc4c(C)c(C)c(C(=O)O)c(OC)c4C)c(OC)c3C)c(C)c2OC)c(C)c(C)c1C(=O)O [Compound 121, Trans-1,2-bis[4'-(4''-carboxy-3''-methoxy-2'',5'',6''-trimethylphenoxycarbonyl)-3^'-methoxy-2',5',6'-trimethylphenoxycarbony] ethene] | 0.33
21 | COc1c(C)c(OC(=O)c2c(C)c(C)c(OC(=O)CCC(=O)Oc3c(C)c(C)c(C(=O)Oc4c(C)c(C)c(C(=O)O)c(OC)c4C)c(OC)c3C)c(C)c2OC)c(C)c(C)c1C(=O)O [Compound 122, 1,2-Bis[4'-[4''-carboxy-3''-methoxy-2'',5'',6''-trimethylphenoxycarbonyl)-3'-methoxy-2',5',6'-trimethylphenoxycarbony] ethane] | 0.04
